pEC50: −log10 of the molar value.
Tests used:
consensus OR4K17 = target: T1, consensus OR4K17 (Homo sapiens, UniProt Q8NGC6, A163V/E24Q/F120Y/F158L/G263S/I192T/I205M/I296T/I46V/K226R/L86V/P230S/S297A/V197I/V23I/V81M/V91T); assay: Luciferase assay, sulfur compounds; format: cell-based
T1 construct: expressed in transfected cells; host or cells: HEK293
T1 sequence (Q8NGC6 with tags, fused parts or gaps V23I/E24Q/I46V/V81M/L86V/V91T/F120Y/F158L/A163V/I192T/V197I/I205M/K226R/P230S/G263S/I296T/S297A): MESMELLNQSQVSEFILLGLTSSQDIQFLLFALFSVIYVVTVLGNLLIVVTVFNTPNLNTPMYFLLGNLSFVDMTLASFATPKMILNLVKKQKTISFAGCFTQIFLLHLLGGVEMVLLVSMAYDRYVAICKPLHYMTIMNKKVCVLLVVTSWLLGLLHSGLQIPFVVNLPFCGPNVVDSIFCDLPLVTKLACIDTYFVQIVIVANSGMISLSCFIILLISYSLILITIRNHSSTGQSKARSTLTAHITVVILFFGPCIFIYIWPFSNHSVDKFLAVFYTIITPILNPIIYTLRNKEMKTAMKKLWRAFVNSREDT

consensus OR6B1 = target: T2, consensus OR6B1 (Homo sapiens, UniProt O95007, C165R/C227R/F212S/I201V/I253T/L3V/L50Q/L96H/N89S/S282A/T195A/V262A); assay: Luciferase assay, sulfur compounds; format: cell-based; settings: in the presence of a copper ion
T2 construct: expressed in transfected cells; host or cells: HEK293
T2 sequence (O95007 whole entry L3V/L50Q/N89S/L96H/C165R/T195A/I201V/F212S/C227R/I253T/V262A/S282A): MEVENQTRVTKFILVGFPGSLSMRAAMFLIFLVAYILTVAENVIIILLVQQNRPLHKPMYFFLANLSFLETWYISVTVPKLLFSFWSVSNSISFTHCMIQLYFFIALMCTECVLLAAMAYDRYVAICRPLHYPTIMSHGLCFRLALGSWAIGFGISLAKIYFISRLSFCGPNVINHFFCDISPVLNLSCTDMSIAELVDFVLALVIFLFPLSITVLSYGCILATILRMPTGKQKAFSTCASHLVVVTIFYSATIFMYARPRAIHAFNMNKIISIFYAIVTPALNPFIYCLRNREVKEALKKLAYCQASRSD

OR2L13 = OR2L13 (Homo sapiens, UniProt Q8N349); settings: JP-A-2020-510436; cited from earlier work
OR2L13, sequence (Q8N349 whole entry): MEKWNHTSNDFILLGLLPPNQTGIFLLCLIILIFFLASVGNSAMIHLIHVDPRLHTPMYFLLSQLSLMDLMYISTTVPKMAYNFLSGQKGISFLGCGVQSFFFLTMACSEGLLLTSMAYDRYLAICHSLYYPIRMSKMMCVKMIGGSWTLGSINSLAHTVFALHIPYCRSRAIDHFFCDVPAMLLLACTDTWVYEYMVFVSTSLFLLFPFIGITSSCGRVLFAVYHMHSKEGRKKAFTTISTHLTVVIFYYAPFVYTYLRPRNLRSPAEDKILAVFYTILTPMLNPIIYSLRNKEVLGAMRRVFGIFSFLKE

OR4C15 = OR4C15 (Homo sapiens, UniProt Q8NGM1); settings: JP-A-2020-510436; cited from earlier work
OR4C15, sequence (Q8NGM1 whole entry): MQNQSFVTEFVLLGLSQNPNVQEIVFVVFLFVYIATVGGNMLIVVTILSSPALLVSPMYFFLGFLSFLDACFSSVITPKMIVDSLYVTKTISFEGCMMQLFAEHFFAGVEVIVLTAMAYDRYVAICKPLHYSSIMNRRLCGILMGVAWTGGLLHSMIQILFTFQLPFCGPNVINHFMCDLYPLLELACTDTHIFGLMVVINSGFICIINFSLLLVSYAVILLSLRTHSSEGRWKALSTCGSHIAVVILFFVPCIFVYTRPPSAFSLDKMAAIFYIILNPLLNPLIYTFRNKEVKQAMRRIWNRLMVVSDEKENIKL

OR2T1 = settings: in the presence of a metal ion (JP-B-6122181); cited from earlier work
[1] = in the presence of a copper ion

| SMILES | pEC50 (consensus OR4K17) | dose dependence of the response of consensus OR4K17 (consensus OR4K17; [1]) | response of consensus OR4K17 (consensus OR4K17; [1]) | response of consensus OR6B1 (consensus OR6B1) | response of OR2L13 (OR2L13) | response of OR4C15 (OR4C15) | response of OR2T1 (OR2T1) |
| --- | --- | --- | --- | --- | --- | --- | --- |
| CSSC [dimethyl disulfide] | 3.25 | dose-dependent response | responded |  |  |  |  |
| CSSSC [dimethyl trisulfide] |  |  |  | responded | respond | respond |  |
| CS [methyl mercaptan] |  |  | responded |  |  |  | respond |

Source: US20240279302A1, “OLFACTORY RECEPTOR EXPRESSING METHOD AND RESPONSE MEASUREMENT METHOD” (Kao Corporation, priority 2021, published 2024)
